# Experimental data reported in patent US12698523B2, “Enhancement of nucleic acid polymerization by aromatic compounds” (priority 2019, dated 2026).
# Legend:
# [1] = biological target: T1, C4760 DNA polymerase (a variant of DPO4, SEQ ID NO:2) (Saccharolobus solfataricus, UniProt Q97W02, A155G/A42V/D156R/D292Y/D294N/E291S/E324K/E325K/E327K/E63R/E79L/G187P/G299W/I153V/I189F/I248T/I295S/K152A/K317Q/K321Q/K56Y/K78D/L293W/M76W/N188Y/P184Q/Q82W/Q83G/R300S/S297Y/S86E/T290K/T301W/V289W/V296Q); test: Primer extension assay with a 411mer amplicon template; type: biochemical, Sulfolobus solfataricus
# T1 construct: made in house
# Description: PEM activity of compound 15 was tested in primer extension assays using a 411mer amplicon template. Primer extension reactions included the following reagents: 50 Mm TrisCl, 200 Mm NH4Oac, 20% PEG8K, 5% NMS, 3 nmol PP-60.20, 2 Mm MnCl2, 2 μg Kod single-strand binding protein (SSB), 1 M urea, 250 pmol each XNTP, 1 pmol template, 1 pmol oligonucleotide primer, 1.2 μg purified recombinant C4760 DNA polymerase (a variant of DPO4, see SEQ ID NO:2), and 2 (lane 2) or 3 (lane 3) Mm PEM. 10 μL primer extension reactions were run for 20 minutes at 37° C. and reaction products were analyzed by gel electrophoresis. A representative gel showing primer extension products is presented in FIG. 12 (the position of a 277mer is indicated by the arrow). […] Remarkably, the polymerase is completely dependent upon the addition of PEM to the reaction in order to be capable of synthesizing these lengthy Xpandomer products. Even longer extension products may be obtained by optimizing various reaction parameters, e.g., extension time and/or concentrations of various additives.
# PEM activity of compound 19, was tested in primer extension assays using the 411mer amplicon template. […] 10 μL primer extension reactions were run for 30 minutes at 37° C. and reaction products were analyzed by gel electrophoresis. […]
# C4552 DNA polymerase = biological target: T2, C4552 DNA polymerase (Saccharolobus solfataricus, UniProt Q97W02, A155G/A42V/D156R/D292Y/D294N/E291S/E324K/E325K/E327K/E79L/G187P/G299W/I153V/I189F/I248T/I295S/K152A/K317Q/K321Q/K56Y/K78D/L293W/M76W/N188Y/P184Q/Q82W/Q83G/R300S/S297Y/S86E/T290K/T301W/V289W/V296Q); test: Primer extension assay with three 100mer templates derived from the HIV1, 2 and 3 genomes; type: biochemical, Sulfolobus solfataricus; settings: 0.5 Mm PEM; HIV1, HIV2, HIV3 100mer templates; 30 minutes at 23° C.; FIG. 9
# T2 construct: made in house
# Description: PEM activity of compounds 9-11 was tested in primer extension assays using three 100mer templates, derived from the HIV1, 2, and 3 genomes. Primer extension reactions included the following reagents: 75 Mm TrisCl, Ph 8.44, 175 Mm NH4Oac, 20% PEG8K, 5% NMS, 0.8 nmol PP-60.20, 0.6 Mm MnCl2, 2.3 μg Tth single-strand binding protein (SSB), 0.5 M or 1 M urea, 200 pmol each XNTP, 1.1 pmol template, 1 pmol oligonucleotide primer, 1.2 μg purified recombinant C4552 DNA polymerase, and 0.5 Mm PEM. 10 μL primer extension reactions were run for 30 minutes at 23° C. and reaction products were analyzed by gel electrophoresis.
# [2] = biological target: T3, C4552 (variant of DPO4 DNA polymerase, SEQ ID NO:1) (Saccharolobus solfataricus, UniProt Q97W02, A155G/A42V/D156R/D292Y/D294N/E291S/E324K/E325K/E327K/E79L/G187P/G299W/I153V/I189F/I248T/I295S/K152A/K317Q/K321Q/K56Y/K78D/L293W/M76W/N188Y/P184Q/Q82W/Q83G/R300S/S297Y/S86E/T290K/T301W/V289W/V296Q); test: XNTP polymerization on longer templates (88, 127, 227, 277 nucleotides); type: biochemical, Sulfolobus solfataricus; settings: 1 Mm compound; templates of 88, 127, 227, 277 nucleotides; 1-2 hr at 23° C.; FIG. 8
# T3 construct: made in house
# Description: Following the success of accurately replicating templates of up to 80 nucleotides in length into Xpandomers, XNTP polymerization reactions were conducted using four longer templates, consisting of 88, 127, 227, and 277 nucleotides in length. A variant of DPO4 DNA polymerase, referred to as C4552 (SEQ ID NO:1), was used in these polymerization reactions and reaction conditions were optimized for C4552 activity in the presence of PEM compound 1. Other suitable DPO4 polymerase variants include, but are not limited to, those of SEQ ID NO:s 2-5. In addition to 1 Mm compound 1, reaction additives included […] and 2.75 μg single-strand binding protein (Eco SSB). Extension reactions were carried out with 0.85 pmol template, 0.5 pmol oligonucleotide primer, and 1 nmol each XNTP in a final volume of 10 μL. Reactions were run in buffer composed of 50 Mm TrisCl, Ph 8.84, 200 Mm NH4Oac, and 20% PEG8K supplemented with 5% NMS, polyphosphate PP-60.20 in amounts of 3 or 4 nmol, and 2 Mm MnCl2. 1.2 μg purified recombinant DNA polymerase protein was used in each extension reaction and reactions were run for 1-2 hr at 23° C. […] Lanes 1-5 and 6-10 represent identical extension reactions with the exception of the amount of PP-60.20 additive, which was 3 nmol in lanes 1-5 and 4 nmol in lanes 6-10.
# DNA polymerase [3] = test: Sequencing by Expansion (SBX) of primer extension products, nanopore reads aligned to template; type: biochemical
# Excerpt: To investigate the accuracy of PEM-dependent enhancement of XNTP polymerization, primer extension products were sequenced using the SBX protocol. Briefly, the constrained Xpandomer products of XNTP polymerization are cleaved to generate linearized Xpandomers. This is accomplished by first quenching the extension reaction with a solution containing 100 Mm EDTA, 2 Mm THPTA, and 2% Tween-20. Then the sample is subjected to amine modification with a solution of 1 M NaHCO3 and 1 M succinic anhydride in DMF. Cleavage of the phosphoramidate bonds is carried out with 37% HCl and linearized Xpandomers are purified with QIAquick columns (QIAGEN, Inc.).
# For sequencing, protein nanopores are prepared by inserting a-hemolysin into a DphPE/hexadecane bilayer member in buffer B1, containing 2 M NH4Cl and 100 Mm HEPES, Ph 7.4. The cis well is perfused with buffer B2, containing 0.4 M NH4Cl, 0.6 M GuCl, and 100 Mm HEPES, Ph 7.4. The Xpandomer sample is heated to 70° C. for 2 minutes, cooled completely, then a 2 μL sample is added to the cis well. A voltage pulse of 90 Mv/390 Mv/10 μs is then applied and data is acquired via Labview acquisition software.
# Sequence data is analyzed by histogram display of the population of sequence reads from a single SBX reaction. […]
# DNA polymerase [4] = test: Screen of PEMs for enhancement of XNTP polymerization (primer extension reaction, gel electrophoresis); type: biochemical; settings: FIG. 4 gel; no PEM additive: up to only around 14 XNTPs
# Excerpt: The Sequencing by Expansion (SBX) methodology developed by the inventors provides significant performance enhancements in sequence read efficiency and accuracy of Xpandomers relative to native DNA. However, initial transcription of the sequence of the natural DNA template onto the measurable Xpandomer relies on the ability of DNA polymerase to utilize XNTPs as substrates (the generalized structure of an XNTP is discussed herein with reference to FIG. 1A and FIG. 2). […] In an effort to improve the efficiency and accuracy of XNTP polymerization into Xpandomers, several PEMs were screened for the ability to enhance DNA polymerase primer extension reactions using XNTPs as substrates.
# A representative primer extension reaction may include the following reagents: 2 pmol primer, 2.2 pmol 45mer oligonucleotide template, 50 pmol of each XNTP (XATP, XCTP, XGTP, and XTTP), 50 Mm Tris HCl, Ph 6.79, 200 Mm NaCl, 20% PEG, 5% NMS, 0.5 nmol polyphosphate 60.19, 0.3 Mm MnCl2, and 0.6 μg of purified recombinant DNA polymerase protein. Reactions may be run for 1 hr at 23° C. Reaction products (i.e., constrained Xpandomers) are treated to cleave the phosphoramidate bonds, thereby generating linearized Xpandomers. Reaction products may be analyzed using gel electrophoresis on 4-12% acrylamide gels to resolve and visualize Xpandomer products of different lengths. For the PEM screen described above, PEMs were typically tested in the micro to millimolar range.
# Again, this PEM activity is specific for compound 2, as other unrelated aromatic compounds had no effect (lanes 2-7).
# T1 sequence (Q97W02 other isoform, or with tags, fused parts or gaps with the stated changes): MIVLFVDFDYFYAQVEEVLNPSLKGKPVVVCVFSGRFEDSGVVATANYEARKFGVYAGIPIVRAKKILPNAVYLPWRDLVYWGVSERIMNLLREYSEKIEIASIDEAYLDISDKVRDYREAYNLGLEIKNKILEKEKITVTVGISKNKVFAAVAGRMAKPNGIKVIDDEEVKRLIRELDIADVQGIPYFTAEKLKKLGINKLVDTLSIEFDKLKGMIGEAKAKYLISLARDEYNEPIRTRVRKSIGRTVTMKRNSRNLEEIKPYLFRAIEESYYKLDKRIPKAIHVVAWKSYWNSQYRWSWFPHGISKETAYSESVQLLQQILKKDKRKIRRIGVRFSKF
# T3 sequence (Q97W02 other isoform, or with tags, fused parts or gaps with the stated changes): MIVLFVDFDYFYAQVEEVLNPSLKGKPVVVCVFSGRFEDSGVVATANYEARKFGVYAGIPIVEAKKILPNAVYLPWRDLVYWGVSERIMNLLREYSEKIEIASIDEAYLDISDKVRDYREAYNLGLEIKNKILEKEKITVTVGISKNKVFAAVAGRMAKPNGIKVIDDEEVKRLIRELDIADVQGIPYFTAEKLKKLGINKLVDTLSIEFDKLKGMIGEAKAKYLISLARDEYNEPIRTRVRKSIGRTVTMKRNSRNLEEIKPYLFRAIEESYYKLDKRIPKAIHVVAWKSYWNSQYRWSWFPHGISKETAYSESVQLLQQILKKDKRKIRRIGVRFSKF
smiles,measurement,setting,value
"CCOC(=O)c1cc(-c2cn(-c3ccc(O)c(C(=O)O)c3)nn2)nc(-c2cn(-c3ccc(O)c(C(=O)O)c3)nn2)c1 [Compound 15, 5,5′-((4-(ethoxycarbonyl)pyridine-2,6-diyl)bis(1H-1,2,3-triazole-4,1-diyl))bis(2-hydroxybenzoic acid)]",polymerization of XNTPs into lengthy Xpandomer copies (PEM activity),"[1]; 2 or 3 Mm PEM, 20 minutes at 37° C., FIG. 12",enables polymerization of XNTPs into lengthy Xpandomer copies of the 411mer template in a manner comparable to that of compound 14
"NC(=O)c1cc(-c2cn(-c3ccc(C(=O)O)c(O)c3)nn2)nc(-c2cn(-c3ccc(C(=O)O)c(O)c3)nn2)c1 [Compound 19, 4,4′-((4-carbamoylpyridine-2,6-diyl)bis(1H-1,2,3-triazole-4,1-diyl))bis(2-hydroxybenzoic acid)]",polymerization of XNTPs into lengthy Xpandomer copies (PEM activity),"[1]; 0.5, 1, or 1.5 Mm PEM, 30 minutes at 37° C., FIG. 14","enables polymerization of XNTPs into lengthy Xpandomer copies of the 411mer template, albeit in a manner less efficient than that of compound 14"
"O=C(O)c1ccc(-n2cc(-c3cccc(-c4cn(-c5ccc(C(=O)O)c(O)c5)nn4)n3)nn2)cc1O [Compound 1, 4,4′-(pyridine-2,6-diylbis(1H-1,2,3-triazole-4,1-diyl))bis(2-hydroxybenzoic acid)]",polymerization of XNTPs into full length Xpandomer copies (PEM activity),C4552 DNA polymerase,enables polymerization of XNTPs into full length Xpandomer copies of the three different 100mer templates
same,polymerization of XNTPs into Xpandomer copies of long templates,[2],complete Xpandomer copies of each longer template
same,accuracy of SBX sequence reads,"DNA polymerase [3]; 45mer template, FIG. 6B, without additive reads not accurate past around base 18",increased the accuracy of the sequence reads across the entire length of the 45mer template
same,accuracy of SBX sequence reads,"DNA polymerase [3]; 60mer and 80mer templates, FIGS. 7A and 7B",enabled accurate sequence reads completely to the end of each of these longer templates
same,DNA polymerase-mediated primer extension with XNTPs (length of extension products),DNA polymerase [4],considerably longer extension products
